Non-standard residues stand in square brackets, D forms with d. No end group written: not given here. Sta = CC(C)C[C@H](N)[C@@H](O)CC(=O)O
Tests used:
LAT1 = target: T1, LAT1 (Mus musculus, UniProt Q9Z127); test: Ability to bind to LAT1: inhibition of [14C]-L-leucine uptake in astrocytes; assay type: cell-based; conditions: mouse primary astrocytes, 0.76 μM [14C]-L-leucine, 5 min, 37 °C
T1 construct: endogenous in cells; host or cells: mouse primary astrocytes (C57BL/6JOlaHsd), cortex and hippocampi
Experimental: For the transporter-binding studies, the astrocytes were seeded on 24-well plates with a density of 10 × 10^4 cells/well 3 days before the experiments. After removal of the culture medium, the cells were carefully washed with pre-warmed HBSS (Hank’s balanced salt solution) containing choline chloride (125 mM), KCl (4.8 mM), MgSO4 (1.2 mM), KH2PO4 (1.2 mM), CaCl2 (1.3 mM), glucose (5.6 mM), and HEPES (25 mM) adjusted to pH 7.4 with 1 M NaOH. The cells were pre-incubated with 500 μL of pre-warmed HBSS at 37 °C for 5 min before the experiments. To study the ability of studied compounds to inhibit the uptake of a known LAT1 substrate, the cells were incubated at 37 °C for 5 min with an uptake buffer (HBSS, 250 μL) containing 0.76 μM (0.25 mCi/mL or […]) of [^14C]-L-leucine (PerkinElmer, Waltham, MA, USA) and 0.1–1000 μM of studied compound (or HBSS as blank). After incubation, the uptake was stopped by adding 500 μL of ice-cold HBSS, and the cells were washed two times with ice-cold HBSS (2 × 500 μL). The cells were then lysed with 500 μL of NaOH (0.1 M) for 60 min and the lysate was mixed with 3.5 mL of Emulsifier-Safe cocktail (Ultima Gold, PerkinElmer, Waltham, MA, USA). The radioactivity in the cells was measured by liquid scintillation counting (MicroBeta^2 counter, PerkinElmer Waltham, MA, USA). Half of the maximum inhibitory concentration (IC50) values were calculated by nonlinear regression analysis (fitting the curve to log (concentration) vs. remaining normalized viability).

[1] = system: MCF-7 human breast adenocarcinoma cells; test: Cell viability of MCF-7 cells with cisplatin co-treatment (resazurin); assay type: cell-based; conditions: 100 μM, 72 h incubation
[2] = target: T2, purified human β-site amyloid precursor protein (APP) cleaving enzyme 1 (BACE1) (Homo sapiens, UniProt P56817); test: BACE1 FRET inhibition assay; assay type: biochemical; conditions: 0.25 μM, 30 min
T2 construct: purchased AnaSpec, Inc. (Fremont, CA, USA), SensoLyte 520 BACE1 Assay kit
Text: A fluorometric assay was used to screen the inhibitory effect of the studied compounds on purified human β-site amyloid precursor protein (APP) cleaving enzyme 1 (BACE1) using a fluorescence resonance energy transfer (FRET) peptide technique (SensoLyte© 520 BACE1 Assay kit, AnaSpec, Inc., Fremont, CA, USA) according to the manufacturer’s protocol. […] The sequence of the FRET peptide has been derived from the β-secretase cleavage site of β-amyloid precursor protein (APP) with Swedish mutation, which enhances β-secretase to process APP resulting in an early onset of AD. Thus, active β-secretase cleaved the FRET substrate into two separate fragments resulting in the release of HiLyte™ Fluor 488 fluorescence that was measured by the Envision plate reader (EnVision, Perkin Elmer, Waltham, MA, USA) at λex 490 nm and λem 520 nm.

[3] = system: prostaglandin E2 (PGE2) production; test: Brain PGE2 production in LPS-induced mice; assay type: in vivo, mouse; conditions: LPS 250 μg/kg per day for 3 days; control 5.72 ± 1.83
Experimental: Adult male C57BL/6JOlaHsd mice (Jackson Laboratories, Bar Harbor, ME, USA) were supplied by Envigo (Venray, Netherlands). Mice were housed in stainless steel cages on a 12-h light (07:00–19:00) and 12-h dark (19:00–07:00) cycle at an ambient temperature of 22 ± 1 °C with a relative humidity of 50–60%. All experiments were carried out during the light phase. Tap water and food pellets (Lactamin R36; Lactamin AB, Södertälje, Sweden) were available ad libitum. Neuroinflammation was induced by the treatment with LPS 250 μg/kg i.p once per day for 3 consequent days followed by decapitation on the 4th day. […]
The effects of the studied compounds to inhibit PGE2 production in the mouse brain were evaluated after LPS-induction as curative and preventative treatments. […] The data were acquired using the Agilent MassHunter Workstation software (version B.06.00) and processed with the Quantitative Analysis (B.07.00) software. The lower limit of quantification (LLOQ) for PGE2 was 1 nM.

caspase-3/-7 = test: Caspase-3/-7 in brain of LPS-induced neuroinflammation mice; assay type: in vivo, mouse; conditions: LPS 250 μg/kg i.p. for 3 days, relative to control
Experimental: Adult male C57BL/6JOlaHsd mice (Jackson Laboratories, Bar Harbor, ME, USA) were supplied by Envigo (Venray, Netherlands). Mice were housed in stainless steel cages on a 12-h light (07:00–19:00) and 12-h dark (19:00–07:00) cycle at an ambient temperature of 22 ± 1 °C with a relative humidity of 50–60%. All experiments were carried out during the light phase. Tap water and food pellets (Lactamin R36; Lactamin AB, Södertälje, Sweden) were available ad libitum. Neuroinflammation was induced by the treatment with LPS 250 μg/kg i.p once per day for 3 consequent days followed by decapitation on the 4th day. The animals were allocated to one of four treatment groups (n = 6 per group): (1) LPS-treated mice, (2) mice treated with LPS and the studied compound (30 μmol/kg; i.v.) for 3 days and 120 min before the decapitation on the 4th day (preventative efficacy), (3) mice treated with LPS for 3 days and with the studied compound (30 μmol/kg; i.v.) only for the last 2 days, and (4) control mice treated with 0.9% NaCl solution i.p. once per day for 3 days. After decapitation, mouse blood and brain samples were collected. […] The plasma layer was centrifuged again at 12,000 × g to remove the platelets. Plasma was stored at − 80 °C until analysis. The brains were snap-frozen in liquid nitrogen and stored at − 80 °C until analysis.
The effects of the compounds on the enzyme activity of caspase-3 and caspase-7 were evaluated from the snap-frozen mouse brain. Pieces of tissues (n = 3) were homogenized in 50 mM Tris–HCl (pH 7.4) 1:10 (w/v) with a bead mill homogenizer. […] The enzyme activity was measured with an Apo-ONE Homogenous Caspase-3/7 Assay kit (Promega Corporation, Madison, WI, USA) according to the manufacturer’s instruction. The assay was performed on 96-well plates, each sample having 3 replicates. Each of the sample wells contained 100 μL of the previously collected supernatant and 100 μL of the prepared Apo-ONE reagent. The blank measurement was carried out with the homogenization buffer and Apo-ONE reagent. Once all the samples and reagents were pipetted in the wells, the plate was carefully shaken for 30 s and left for incubation in dark at room temperature. The fluorescence was measured after the incubation with an EnVision 2104 Multilabel Reader (PerkinElmer, Waltham, MA, USA), with λex 499 nm and λem 521 nm. The measurement was repeated on multiple time points between 0.5 and 24 h.

T1 sequence (Q9Z127 whole entry): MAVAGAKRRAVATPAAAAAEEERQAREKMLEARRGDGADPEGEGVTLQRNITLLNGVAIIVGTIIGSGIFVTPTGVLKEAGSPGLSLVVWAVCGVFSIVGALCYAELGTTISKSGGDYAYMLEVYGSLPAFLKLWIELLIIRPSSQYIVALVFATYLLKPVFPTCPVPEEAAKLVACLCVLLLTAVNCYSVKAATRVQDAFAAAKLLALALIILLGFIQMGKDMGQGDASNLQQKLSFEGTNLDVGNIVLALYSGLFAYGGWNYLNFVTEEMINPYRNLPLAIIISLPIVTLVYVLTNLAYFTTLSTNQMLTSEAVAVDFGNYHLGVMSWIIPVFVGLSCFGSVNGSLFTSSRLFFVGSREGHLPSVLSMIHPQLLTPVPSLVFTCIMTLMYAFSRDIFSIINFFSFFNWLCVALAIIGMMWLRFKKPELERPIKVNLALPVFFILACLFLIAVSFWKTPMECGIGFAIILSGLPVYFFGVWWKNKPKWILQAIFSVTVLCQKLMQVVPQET
T1 sequence (P10852 whole entry partner): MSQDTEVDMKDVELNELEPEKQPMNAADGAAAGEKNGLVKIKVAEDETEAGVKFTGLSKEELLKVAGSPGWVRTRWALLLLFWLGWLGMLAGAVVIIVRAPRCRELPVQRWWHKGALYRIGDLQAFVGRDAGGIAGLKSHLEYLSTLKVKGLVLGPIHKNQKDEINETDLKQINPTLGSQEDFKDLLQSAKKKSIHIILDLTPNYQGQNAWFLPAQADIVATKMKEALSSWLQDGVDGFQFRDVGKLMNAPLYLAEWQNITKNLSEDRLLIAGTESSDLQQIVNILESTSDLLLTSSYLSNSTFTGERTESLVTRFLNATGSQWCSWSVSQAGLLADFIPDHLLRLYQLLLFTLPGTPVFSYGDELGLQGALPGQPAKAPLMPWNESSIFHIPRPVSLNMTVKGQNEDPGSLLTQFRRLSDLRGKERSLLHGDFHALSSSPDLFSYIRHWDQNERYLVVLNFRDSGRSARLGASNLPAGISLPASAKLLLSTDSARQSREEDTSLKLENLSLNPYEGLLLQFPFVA
T2 sequence (P56817 22-501 limits assumed): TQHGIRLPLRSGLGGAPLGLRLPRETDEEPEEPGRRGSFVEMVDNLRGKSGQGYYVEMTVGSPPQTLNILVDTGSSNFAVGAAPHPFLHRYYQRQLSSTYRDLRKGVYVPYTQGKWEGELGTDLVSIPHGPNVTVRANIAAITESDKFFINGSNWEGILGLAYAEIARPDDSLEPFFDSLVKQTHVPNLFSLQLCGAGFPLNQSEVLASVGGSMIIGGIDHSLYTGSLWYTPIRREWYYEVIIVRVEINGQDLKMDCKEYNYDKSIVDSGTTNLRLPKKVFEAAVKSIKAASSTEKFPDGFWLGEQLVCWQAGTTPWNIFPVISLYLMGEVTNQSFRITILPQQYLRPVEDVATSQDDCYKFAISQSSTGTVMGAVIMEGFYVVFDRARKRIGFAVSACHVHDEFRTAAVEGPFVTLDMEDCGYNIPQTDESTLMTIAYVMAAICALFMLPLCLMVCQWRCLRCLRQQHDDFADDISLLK

## CNC(=O)COc1ccc(-c2c(C#N)c(NC(=O)c3cccc(C[C@H](N)C(=O)O)c3)n3c(nc4ccccc43)c2C#N)cc1 [LAT1 inhibitor, KMH-233, reference compound]
LAT1
  IC50: 14.4 ± 1.2 µM
LAT1; listed as LAT1-inhibitor
  IC50: 14 µM

## N.N.[Cl][Pt][Cl] [cisplatin, reference compound]
[1]
  Inhibition of MCF-7 cell growth: 51%

## KTEEISEVN-Sta-VAEF-NH2 (KTEEISEVN[Sta]VAEF-NH2; N-terminus assumed; SMILES CC[C@H](C)[C@H](NC(=O)[C@H](CCC(=O)O)NC(=O)[C@H](CCC(=O)O)NC(=O)[C@@H](NC(=O)[C@@H](N)CCCCN)[C@@H](C)O)C(=O)N[C@@H](CO)C(=O)N[C@@H](CCC(=O)O)C(=O)N[C@H](C(=O)N[C@@H](CC(N)=O)C(=O)N[C@@H](CC(C)C)[C@@H](O)CC(=O)N[C@H](C(=O)N[C@@H](C)C(=O)N[C@@H](CCC(=O)O)C(=O)N[C@@H](Cc1ccccc1)C(N)=O)C(C)C)C(C)C) [BACE1 inhibitor, reference compound]
[2]
  Inhibition of BACE1 activity: ca. 86%

## lipopolysaccharide [LPS]
[3]
  Brain PGE2 production, LPS alone: 16.56 ± 2.45 nmol of PGE2/mg tissue
caspase-3/-7
  Brain caspase-3/-7 levels, LPS alone: 137%

From publication PMC7515946, “Targeting of Perforin Inhibitor into the Brain Parenchyma Via a Prodrug Approach Can Decrease Oxidative Stress and Neuroinflammation and Improve Cell Survival” (Molecular Neurobiology, 2020)
